Read-outs that look alike come from different tables or passages of the source.
Experiments:
Klebsiella pneumoniae [1] = assay type: cell-based
Method: (§1) Determination of Minimal Inhibitory Concentrations (MIC).
Additional MIC testing was performed for several peptides against the ESKAPE pathogens Escherichia coli, Enterobacter cloacae, Klebsiella pneumoniae, and Acinetobacter baumannii, in CAA supplemented with human serum (Table D).

[2] = tested on: P. aeruginosa strain CFS-1292; test: MIC in presence and absence of NaCl (140 mM); assay type: cell-based, Pseudomonas aeruginosa
Method: Certain Chp peptides were evaluated over a range of physiological NaCl levels and pH values, and were further evaluated for activity in the presence of various divalent cations.

[3] = tested on: carbapenem-resistant P. aeruginosa clinical isolate CFS-1292; test: MIC by modified CLSI broth microdilution against P. aeruginosa CFS-1292 (CAA, CAA + human serum); assay type: cell-based, Pseudomonas aeruginosa; details: 100% CAA; 1st run or single value
S. maltophilia = test: MIC against S. maltophilia isolates; assay type: cell-based, Stenotrophomonas maltophilia; details: S. maltophilia isolates (n per peptide in table)
Procedure, shortened: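 Chp peptides were tested on a set of S. maltophilia isolates (n = isolates per species), with minimal inhibitory concentrations given in μg/mL.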

M. smegmatis = test: 45 hr MIC against M. smegmatis (NTM), Mueller Hinton broth; assay type: cell-based, Mycobacterium smegmatis; details: M. smegmatis MC^2 155, Run #1
[4] = Stability assessment in 100% CAA; assay type: in vitro ADME; set-up: unit not given beside the values
Method: Stability was assessed after incubation in 100% human serum at 37° C. after 10 minutes, 1 hour, and 2 hours.
Stability assessment was further conducted in 100% CAA and rabbit serum using the same methodology discussed above.

Salmonella typhimurium = test: MIC against Salmonella typhimurium; assay type: cell-based
Enterobacter cloacae = test: microbe, parasite or virus in culture; assay type: cell-based
Procedure, shortened: (§2)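 Human serum was added to CAA broth for these MIC determinations with peptides.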

Escherichia coli = test: microbe, parasite or virus in culture; assay type: cell-based
Procedure, shortened: as §2

[5] = tested on: P. aeruginosa strain CFS-1292; test: MIC in presence of divalent cations (calcium chloride, magnesium sulfate); assay type: cell-based, Pseudomonas aeruginosa
Method: Next, Chp peptides were evaluated in the presence of different divalent cations. […]; (2) in the presence of 2 mM calcium chloride alone; (3) in the presence of 1 mM magnesium sulfate alone; and (4) in the presence of both 2 mM calcium chloride and 1 mM magnesium sulfate. […]

Klebsiella pneumoniae [6] = test: microbe, parasite or virus in culture; assay type: cell-based; details: CAA without human serum
[7] = tested on: carbapenem-resistant bacterial strains; test: organism not typed; assay type: cell-based
Excerpt: as §1

[8] = tested on: P. aeruginosa strain CFS-1292; test: MIC in presence and absence of Survanta pulmonary surfactant; assay type: cell-based, Pseudomonas aeruginosa
[9] = tested on: P. aeruginosa strain CFS-1292; test: MIC at pH 6, pH 7 and pH 8; assay type: cell-based, Pseudomonas aeruginosa
Method: The Chp peptides were further evaluated at varying pH levels. The MIC values were determined at pH 6, pH 7, and pH 8 for 18 different Chp peptides against P. aeruginosa strain CFS-1292. […]

Acinetobacter baumannii = test: microbe, parasite or virus in culture; assay type: cell-based
Pseudomonas aeruginosa = test: microbe, parasite or virus in culture; assay type: cell-based; details: for MIC: CAA without human serum
[10] = K. pneumoniae isolates (n per peptide in table)
[11] = E. cloacae isolates (n per peptide in table)
[12] = E. coli isolates (n per peptide in table)
[13] = A. baumannii isolates (n per peptide in table)
[14] = P. aeruginosa isolates (n per peptide in table)

MARSRRRMSKRSSRRSFRKYAKTHKRNFKARSMRGGIRL [Ecp1]
MIC50 (Klebsiella pneumoniae [1]; [10]): 1 µg/mL | MIC100 (Klebsiella pneumoniae [1]; [10]): 2 µg/mL | MIC Range (Klebsiella pneumoniae [1]; [10]): 1 to 2 µg/mL | MIC (Klebsiella pneumoniae [1]; Klebsiella pneumoniae HM-44, CAA supplemented with human serum): 0.5 µg/mL | Fold change in MIC ([2]; CAA + 140 mM NaCl versus CAA without added NaCl): 4 | MIC, CAA + 140 mM NaCl ([2]; CAA + 140 mM NaCl, P. aeruginosa CFS-1292): 2 µg/mL | MIC, CAA (no added NaCl) ([2]; CAA, no added NaCl, P. aeruginosa CFS-1292): 0.5 µg/mL | MIC (μg/mL) against CFS-1292 in 100% CAA (1st run/2nd run) [3]: 0.5 µg/mL | MIC50 (S. maltophilia): 8 µg/mL | MIC100 (S. maltophilia): >8 µg/mL | 45 hr MIC (M. smegmatis): 4 µg/mL | MIC (100% CAA) [4]: 0.25 | MIC (Salmonella typhimurium; Salmonella typhimurium): 2 µg/mL | MIC (Salmonella typhimurium; Salmonella typhimurium LT2 (lab isolate), RSC 27, CAA without human serum): 2 µg/mL | MIC50 (Enterobacter cloacae; [11]): 0.5 µg/mL | MIC100 (Enterobacter cloacae; [11]): 2 µg/mL | MIC Range (Enterobacter cloacae; [11]): 0.25 to 4 µg/mL | MIC (Enterobacter cloacae; Enterobacter cloacae (ATCC 13047, MIC control strain), RSC 1240, CAA without human serum): 2 µg/mL | MIC (Enterobacter cloacae; Enterobacter cloacae ATCC 13047, CAA supplemented with human serum): 16 µg/mL | MIC (Escherichia coli; E. coli (ATCC 25922, MIC control strain), RSC 813, CAA without human serum): 2 µg/mL | MIC (Escherichia coli; E. coli (HM346, colon, Crohn's disease), RSC 1212, CAA without human serum): 2 µg/mL | MIC50 (Escherichia coli; [12]): 0.5 µg/mL | MIC100 (Escherichia coli; [12]): 2 µg/mL | MIC Range (Escherichia coli; [12]): 0.25 to 4 µg/mL | MIC (Escherichia coli; Escherichia coli ATCC 25922, CAA supplemented with human serum): 0.25 µg/mL | MIC ([5]; CAA media + 1 mM MgSO4): 0.5 µg/mL | MIC ([5]; CAA media + 2 mM CaCl2): 1 µg/mL | MIC ([5]; CAA media + + 1 mM MgSO4): 1 µg/mL | MIC ([5]; CAA media alone): 0.5 µg/mL | MIC (Klebsiella pneumoniae [6]; Klebsiella pneumoniae (ATCC 10031, MIC control strain), RSC 814): 2 µg/mL | MIC (Klebsiella pneumoniae [6]; Klebsiella pneumoniae (g2-3 HM35K), RSC 1138): 2 µg/mL | MIC (Klebsiella pneumoniae [6]; Klebsiella sp. (HM-44; colon, Crohn's disease), RSC 1139): 2 µg/mL | MIC (Klebsiella pneumoniae [6]; Klebsiella spp. (HM-223; gut of Crohn's disease patient), RSC 1131): 2 µg/mL | MIC ([7]; carbapenem-resistant isolate PA19): 1 µg/mL | MIC ([7]; carbapenem-resistant isolate PA20): >8 µg/mL | MIC ([7]; carbapenem-resistant isolate PA21): >8 µg/mL | MIC ([7]; carbapenem-resistant isolate PA22): 8 µg/mL | MIC ([7]; carbapenem-resistant isolate PA23): 4 µg/mL | MIC ([7]; carbapenem-resistant isolate PA24): 4 µg/mL | MIC ([7]; carbapenem-resistant isolate WLC-452): 2 µg/mL | MIC ([8]; CAA media + 0.19 mg/mL Survanta): 0.5 µg/mL | MIC ([8]; CAA media + […] Survanta): 0.5 µg/mL | MIC ([8]; CAA media alone): 0.5 µg/mL | MIC ([9]; CAA media (pH 7)): 0.5 µg/mL | MIC ([9]; pH 6): 1 µg/mL | MIC ([9]; pH 7): 1 µg/mL | MIC ([9]; pH 8): 1 µg/mL | MIC50 (Acinetobacter baumannii; [13]): 0.5 µg/mL | MIC100 (Acinetobacter baumannii; [13]): 1 µg/mL | MIC Range (Acinetobacter baumannii; [13]): 0.125 to 2 µg/mL | MIC (Acinetobacter baumannii; Acinetobacter baumannii (clinical isolate HSS), RSC 30, CAA without human serum): 2 µg/mL | MIC (Acinetobacter baumannii; Acinetobacter baumannii (clinical isolate HSS), RSC 32, CAA without human serum): 2 µg/mL | MIC (Acinetobacter baumannii; Acinetobacter baumannii ATCC BAA 747, CAA supplemented with human serum): 1 µg/mL | MIC (Pseudomonas aeruginosa; P. aeruginosa 453 (Human clinical isolate, HSS), RSC 1292): 2 µg/mL | MIC (Pseudomonas aeruginosa; P. aeruginosa (ATCC 14213, human hip wound), RSC 1111): 2 µg/mL | MIC (Pseudomonas aeruginosa; P. aeruginosa (ATCC 15152, abscess in middle ear), RSC 1110): 1 µg/mL | MIC (Pseudomonas aeruginosa; P. aeruginosa (ATCC 15692, infected wound), RSC 489): 2 µg/mL | MIC (Pseudomonas aeruginosa; P. aeruginosa (ATCC 15692, infected wound), RSC 1115): 2 µg/mL | MIC (Pseudomonas aeruginosa; P. aeruginosa (ATCC 17646, human liver abscess), RSC 1109): 2 µg/mL | MIC (Pseudomonas aeruginosa; P. aeruginosa (ATCC 19142, tracheobronchial secretion), RSC 1108): 1 µg/mL | MIC (Pseudomonas aeruginosa; P. aeruginosa (ATCC 25102, bacteriophage host), RSC 1114): 2 µg/mL | MIC (Pseudomonas aeruginosa; P. aeruginosa (ATCC 27853, MIC control strain), RSC 815): 2 µg/mL | MIC (Pseudomonas aeruginosa; P. aeruginosa (ATCC BAA-27, lab strain), RSC 1113): 4 µg/mL | MIC (Pseudomonas aeruginosa; P. aeruginosa (PAO1, alternate source, HER1018), RSC 490): 2 µg/mL | MIC50 (Pseudomonas aeruginosa; [14]): 4 µg/mL | MIC100 (Pseudomonas aeruginosa; [14]): >8 µg/mL
